Data published in PubChem BioAssay (NCI).
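In this assay, cells in 96-well plates receive the compound at five concentrations for 48 hours. Endpoints are linearly interpolated between the surrounding concentrations. TGI is the concentration that stops growth completely.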

Assays:
Test in all cases: growth of human tumour cells (NCI), 48 h
[1] = tested on: TK-10 renal
[2] = tested on: ACHN renal
[3] = tested on: NCI-H460 lung
[4] = tested on: A498 renal
[5] = tested on: SK-MEL-5 melanoma
[6] = tested on: IGROV1 ovarian
[7] = tested on: T-47D breast
[8] = tested on: SK-MEL-2 melanoma
[9] = tested on: SR leukemia
[10] = tested on: UACC-62 melanoma
[11] = tested on: UO-31 renal
[12] = tested on: NCI/ADR-RES ovarian
[13] = tested on: NCI-H522 lung
[14] = tested on: BT-549 breast
[15] = tested on: 786-0 renal
[16] = tested on: SF-268 CNS
[17] = tested on: CAKI-1 renal
[18] = tested on: EKVX NSCLC
[19] = tested on: NCI-H23 lung
[20] = tested on: MDA-MB-231 breast
[21] = tested on: CCRF-CEM leukemia
[22] = tested on: COLO 205 colon
[23] = tested on: SF-539 CNS
[24] = tested on: HT29 colon
[25] = tested on: MALME-3M melanoma
[26] = tested on: MCF7 breast
[27] = tested on: OVCAR-4 ovarian
[28] = tested on: HCT-15 colon
[29] = tested on: SNB-19 CNS
[30] = tested on: HCT-116 colon
[31] = tested on: MDA-MB-435
[32] = tested on: OVCAR-8 ovarian
[33] = tested on: LOX IMVI melanoma
[34] = tested on: OVCAR-3 ovarian
[35] = tested on: HS 578T breast
[36] = tested on: SN12C renal
[37] = tested on: DU-145 prostate
[38] = tested on: PC-3 prostate
[39] = tested on: A549 NSCLC
[40] = tested on: M14 melanoma
[41] = tested on: SF-295 CNS
[42] = tested on: HOP-92 NSCLC
[43] = tested on: UACC-257 melanoma
[44] = tested on: OVCAR-5 ovarian
[45] = tested on: KM12 colon
[46] = tested on: MDA-N
[47] = tested on: SW-620 colon
[48] = tested on: NCI-H226 lung
[49] = tested on: SK-MEL-28 melanoma
[50] = tested on: SNB-75 CNS
[51] = tested on: K-562 leukemia
[52] = tested on: RPMI-8226 leukemia
[53] = tested on: MOLT-4 leukemia
[54] = tested on: HL-60(TB) leukemia
[55] = tested on: RXF 393 renal
[56] = tested on: SK-OV-3 ovarian
[57] = tested on: U251 CNS
[58] = tested on: HOP-62 NSCLC

COc1ccc2cc(C(=O)CCC(=O)O)ccc2c1
TGI [1]: > 100 µM
TGI [2]: > 100 µM
TGI [3]: > 100 µM
TGI [4]: > 100 µM
TGI [5]: > 100 µM
TGI [6]: > 100 µM
TGI [7]: > 100 µM
TGI [8]: > 100 µM
TGI [9]: > 100 µM
TGI [10]: > 100 µM
TGI [11]: > 100 µM
TGI [12]: > 100 µM
TGI [13]: > 100 µM
TGI [14]: > 100 µM
TGI [15]: > 100 µM
TGI [16]: > 100 µM
TGI [17]: > 100 µM
TGI [18]: > 100 µM
TGI [19]: > 100 µM
TGI [20]: > 100 µM
TGI [21]: > 100 µM
TGI [22]: > 100 µM
TGI [23]: > 100 µM
TGI [24]: > 100 µM
TGI [25]: > 100 µM
TGI [26]: > 100 µM
TGI [27]: > 100 µM
TGI [28]: > 100 µM
TGI [29]: > 100 µM
TGI [30]: > 100 µM
TGI [31]: > 100 µM
TGI [32]: > 100 µM
TGI [33]: > 100 µM
TGI [34]: > 100 µM
TGI [35]: > 100 µM
TGI [36]: > 100 µM
TGI [37]: > 100 µM
TGI [38]: > 100 µM
TGI [39]: > 100 µM
TGI [40]: > 100 µM
TGI [41]: > 100 µM
TGI [42]: > 100 µM
TGI [43]: > 100 µM
TGI [44]: > 100 µM
TGI [45]: > 100 µM
TGI [46]: > 100 µM
TGI [47]: > 100 µM
TGI [48]: > 100 µM
TGI [49]: > 100 µM
TGI [50]: > 100 µM
TGI [51]: > 100 µM
TGI [52]: > 100 µM
TGI [53]: > 100 µM
TGI [54]: > 100 µM
TGI [55]: > 100 µM
TGI [56]: > 100 µM
TGI [57]: > 100 µM
TGI [58]: > 100 µM

COc1cc2c3c(c1O)-c1c(ccc(OC)c1OC)CC3N(C)CC2 (centres undefined)
TGI [1]: > 100 µM
TGI [2]: > 100 µM
TGI [3]: > 100 µM
TGI [4]: > 100 µM
TGI [5]: > 100 µM
TGI [6]: > 100 µM
TGI [7]: > 100 µM
TGI [8]: > 100 µM
TGI [9]: > 100 µM
TGI [10]: > 100 µM
TGI [11]: > 100 µM
TGI [12]: > 100 µM
TGI [13]: > 100 µM
TGI [14]: > 100 µM
TGI [15]: > 100 µM
TGI [16]: > 100 µM
TGI [17]: > 100 µM
TGI [18]: > 100 µM
TGI [19]: > 100 µM
TGI [20]: > 100 µM
TGI [21]: > 100 µM
TGI [22]: > 100 µM
TGI [23]: > 100 µM
TGI [24]: > 100 µM
TGI [26]: > 100 µM
TGI [27]: > 100 µM
TGI [28]: > 100 µM
TGI [29]: > 100 µM
TGI [30]: > 100 µM
TGI [31]: > 100 µM
TGI [32]: > 100 µM
TGI [33]: > 100 µM
TGI [34]: > 100 µM
TGI [35]: > 100 µM
TGI [36]: > 100 µM
TGI [37]: > 100 µM
TGI [38]: > 100 µM
TGI [39]: > 100 µM
TGI [40]: > 100 µM
TGI [41]: > 100 µM
TGI [42]: > 100 µM
TGI [43]: > 100 µM
TGI [44]: > 100 µM
TGI [45]: > 100 µM
TGI [46]: > 100 µM
TGI [47]: > 100 µM
TGI [48]: > 100 µM
TGI [50]: > 100 µM
TGI [52]: > 100 µM
TGI [53]: > 100 µM
TGI [54]: > 100 µM
TGI [55]: > 100 µM
TGI [56]: > 100 µM
TGI [57]: > 100 µM

NCCNS(=O)(=O)c1ccc(N)cc1
TGI [1]: > 100 µM
TGI [2]: > 100 µM
TGI [4]: > 100 µM
TGI [5]: > 100 µM
TGI [6]: > 100 µM
TGI [7]: > 100 µM
TGI [8]: > 100 µM
TGI [9]: > 100 µM
TGI [10]: > 100 µM
TGI [11]: > 100 µM
TGI [12]: > 100 µM
TGI [13]: > 100 µM
TGI [14]: > 100 µM
TGI [15]: > 100 µM
TGI [16]: > 100 µM
TGI [17]: > 100 µM
TGI [18]: > 100 µM
TGI [19]: > 100 µM
TGI [20]: > 100 µM
TGI [21]: > 100 µM
TGI [22]: > 100 µM
TGI [23]: > 100 µM
TGI [24]: > 100 µM
TGI [25]: > 100 µM
TGI [26]: > 100 µM
TGI [27]: > 100 µM
TGI [28]: > 100 µM
TGI [29]: > 100 µM
TGI [30]: > 100 µM
TGI [31]: > 100 µM
TGI [32]: > 100 µM
TGI [33]: > 100 µM
TGI [34]: > 100 µM
TGI [35]: > 100 µM
TGI [36]: > 100 µM
TGI [37]: > 100 µM
TGI [38]: > 100 µM
TGI [39]: > 100 µM
TGI [40]: > 100 µM
TGI [41]: > 100 µM
TGI [42]: > 100 µM
TGI [43]: > 100 µM
TGI [44]: > 100 µM
TGI [45]: > 100 µM
TGI [46]: > 100 µM
TGI [47]: > 100 µM
TGI [48]: > 100 µM
TGI [49]: > 100 µM
TGI [50]: > 100 µM
TGI [51]: > 100 µM
TGI [52]: > 100 µM
TGI [53]: > 100 µM
TGI [54]: 41.5 µM
TGI [55]: > 100 µM
TGI [56]: > 100 µM
TGI [57]: > 100 µM
TGI [58]: > 100 µM
